Experimental data: ChEMBL document CHEMBL1128165, “Quinuclidine-based NK1 antagonists, the role of the benzhydryl” (Bioorg Med Chem Lett, 1995)

Assays:
Substance-P receptor [1] = target: Substance-P receptor (Homo sapiens, UniProt P25103); experiment: Binding affinity towards wild type human Wild-type tachykinin receptor 1 expressed in Chinese hamster ovary cells; assay type: cell-based
Substance-P receptor [2] = target: Substance-P receptor (Homo sapiens, UniProt P25103, H197A); experiment: Binding affinity towards human mutant NK-1 receptor in which His-197 has been replaced by alanine (H197A)
Sequence of Substance-P receptor (Homo sapiens, UniProt P25103, H197A) (P25103 whole entry H197A): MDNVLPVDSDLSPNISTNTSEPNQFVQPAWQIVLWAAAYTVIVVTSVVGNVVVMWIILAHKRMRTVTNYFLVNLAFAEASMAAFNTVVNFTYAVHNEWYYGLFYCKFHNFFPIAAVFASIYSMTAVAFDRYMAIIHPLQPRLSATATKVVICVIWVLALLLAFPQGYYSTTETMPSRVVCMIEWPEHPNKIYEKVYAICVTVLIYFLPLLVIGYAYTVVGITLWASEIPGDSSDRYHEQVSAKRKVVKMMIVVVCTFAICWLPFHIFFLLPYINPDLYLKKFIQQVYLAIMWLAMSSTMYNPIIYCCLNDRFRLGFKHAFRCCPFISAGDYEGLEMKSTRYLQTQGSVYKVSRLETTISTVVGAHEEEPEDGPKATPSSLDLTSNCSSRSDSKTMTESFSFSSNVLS

Sequence of Substance-P receptor (Homo sapiens, UniProt P25103) (P25103 whole entry): as the sequence (P25103 whole entry H197A) above, with A197H counted along it

Structure (SMILES)	IC50 (Substance-P receptor [1]) [nM]	IC50 (Substance-P receptor [2]) [nM]
Cc1cc(C)cc(CO[C@H]2C3CCN(CC3)[C@H]2C(c2ccccc2)c2ccccc2)c1 [L-706125]	2	196
FC(F)(F)c1cc(CO[C@H]2C3CCN(CC3)[C@H]2Cc2ccccc2)cc(C(F)(F)F)c1	197	500
Cc1cc(C)cc(CO[C@H]2C3CCN(CC3)[C@H]2Cc2ccccc2)c1	292	845
FC(F)(F)c1cc(CO[C@H]2C3CCN(CC3)[C@H]2C(c2ccccc2)c2ccccc2)cc(C(F)(F)F)c1 [L-709210]	2	330
